# Experimental data from patent EP3501490A1, “COMPOSITION FOR EXTERNAL USE THAT INCLUDES PTEROSTILBENE GLYCOSIDE” (Tomoike Industrial (H.K.) Limited, priority 2016, dated 2018).
# Assays:
# [1] = target: T1, Tyrosinase (Cat. No. T3824, SIGMA) (Agaricus bisporus, UniProt C7FF04); assay: In vitro tyrosinase inhibition experiment (Experimental Example 3); format: biochemical; details: fold more excellent than the aglycone pterostilbene, based on IC50 values of Fig. 3
# T1 construct: purchased SIGMA T3824
# Experimental: The tyrosinase inhibitory effect of pterostilbene monoglucoside was analyzed (IC50 values were measured) based on a generally known method (e.g., Expert Opin Ther Pat. 2016; 26(3): 347-62). Tyrosinase (Cat. No. T3824, SIGMA) was used as tyrosinase. Further, pterostilbene (produced by Tokyo Chemical Industry Co., Ltd.; A in the figure), the pterostilbene monoglucoside above (B in the figure), and arbutin as a positive control (C in the figure) were used.
# type IV collagen = assay: Type IV collagen protein expression in three-dimensional skin model by western blotting and densitometry (Experimental Examples 2 and 5); format: cell-based; details: Homo sapiens, 168 h; 25 µM and 100 µM final concentrations, 7 days; at most (maximum), concentration dependent; α-tubulin internal standard; read-out: increase of the amount of type IV collagen expression in the three-dimensional skin model compared to the control
# Experimental: The three-dimensional skin model produced following the protocol of the kit was acclimated in the medium supplied with the kit.
# The cells after culturing were collected, lysates thereof were subjected to western blotting using an anti-human collagen antibody (COL4A3BP; Abcam), and the amount of type IV collagen protein expression was analyzed. Further, western blotting using an anti-α-tubulin antibody as the internal standard was also performed, and the obtained image data was subjected to densitometry analysis.
# These solutions were added to three-dimensional skin models and cultured for 7 days. The lysates of cells after culturing were subjected to western blotting using an anti-human collagen antibody, and the amounts of type IV collagen expression in the cells were analyzed. As a negative control (Ctrl), an experiment was performed in which a DMSO solution was added alone to the three-dimensional skin model.
# Further, western blotting using an anti-α-tubulin antibody as the internal standard was also performed, and the obtained image data was subjected to densitometry analysis.
# type IV collagen gene = assay: Type IV collagen mRNA expression in human skin cells by microarray method (Experimental Example 1); format: cell-based; details: 120 h, cultured for 5 days, hTERT-immortalized human skin cells, read-out: increase of the expression amount of type IV collagen gene compared to the negative control experiment
# Experimental: Human skin cells were immortalized by introducing the hTERT gene and acclimated in a predetermined medium, Prigrow III (APB). Thereafter, the pterostilbene monoglucoside (50 µM) was added to the conditioned medium and cultured for 5 days in a 5% CO2 environment at 37°C.
# RNA was collected from the cells after culturing, and changes in the amount of type IV collagen mRNA expression were analyzed by microarray method. […] A negative control experiment was also performed in which the pterostilbene monoglucoside was not added to the conditioned medium.
# T1 sequence (C7FF04 2-392 limits assumed): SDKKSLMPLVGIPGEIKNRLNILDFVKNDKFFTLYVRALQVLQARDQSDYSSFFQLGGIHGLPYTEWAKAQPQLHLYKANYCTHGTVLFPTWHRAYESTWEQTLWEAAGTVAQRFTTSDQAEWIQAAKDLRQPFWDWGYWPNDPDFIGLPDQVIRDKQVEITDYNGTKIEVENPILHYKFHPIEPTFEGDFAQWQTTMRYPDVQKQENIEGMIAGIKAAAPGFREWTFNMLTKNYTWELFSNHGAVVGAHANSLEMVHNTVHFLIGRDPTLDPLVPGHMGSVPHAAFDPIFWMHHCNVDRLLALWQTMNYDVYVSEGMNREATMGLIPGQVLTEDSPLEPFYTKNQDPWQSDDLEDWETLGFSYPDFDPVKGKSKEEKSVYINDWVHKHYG
smiles,measurement,setting,value
COc1cc(/C=C/c2ccc(OC3O[C@H](CO)[C@@H](O)[C@H](O)[C@H]3O)cc2)cc(OC)c1 (stereo partly drawn) [pterostilbene monoglucoside],tyrosinase inhibitory effect relative to pterostilbene (comparison of IC50 values),[1],~5.5 times
same,maximal fold induction,type IV collagen,~2.5
same,fold induction at 50 µM,type IV collagen gene,~1.35
